# Measured values taken from ChEMBL document CHEMBL4304741, “Modification and Biological Evaluation of a Series of 1,5-Diaryl-1,2,4-triazole Compounds as Novel Agents against Pancreatic Cancer Metastasis through Targeting Myoferlin” (J Med Chem, 2019).
# The source made the active and inactive calls. The rule behind the calls is not given here.
# Legend:
# [1] = Toxicity in Balb/c nude mouse xenografted with PANC1 cells assessed as pathological changes in liver at 25 to 50 mg/kg/day, ip by H and E staining-based microscopic analysis; format: organism-based; conditions: in vivo
# [2] = Toxicity in Balb/c nude mouse xenografted with PANC1 cells assessed as pathological changes in kidney at 25 to 50 mg/kg/day, ip by H and E staining-based microscopic analysis; format: organism-based; conditions: in vivo
# [3] = test system: PANC-1; assay: Cytotoxicity against human PANC1 cells assessed as reduction in cell viability measured after 48 hrs by MTS assay; format: cell-based; conditions: PANC-1, 48 h
# [4] = test system: PANC-1; assay: Antimigratory activity against human PANC1 cells measured after 18 hrs in presence of mitomycin C using crystal violet staining by inverted microscopy-based transwell assay; format: functional, cell-based
# [5] = test system: PANC-1; assay: Effect on EGFR expression in MYOF-knockout human PANC1 cells up to 400 nM by Western blot analysis; format: functional, cell-based
# [6] = test system: Capan-2; assay: Antimigratory activity against human Capan2 cells measured after 36 hrs in presence of mitomycin C using crystal violet staining by inverted microscopy-based transwell assay; format: functional, cell-based
# [7] = biological target: T1, Cytochrome P450 1A2 (Homo sapiens, UniProt P05177); assay: Inhibition of CYP1A2 in human liver microsomes using phenacetin as substrate preincubated for 5 mins followed by NADPH-generating system addition and measured after 20 mins by LC-MS/MS analysis
# T1 sequence (P05177 whole entry): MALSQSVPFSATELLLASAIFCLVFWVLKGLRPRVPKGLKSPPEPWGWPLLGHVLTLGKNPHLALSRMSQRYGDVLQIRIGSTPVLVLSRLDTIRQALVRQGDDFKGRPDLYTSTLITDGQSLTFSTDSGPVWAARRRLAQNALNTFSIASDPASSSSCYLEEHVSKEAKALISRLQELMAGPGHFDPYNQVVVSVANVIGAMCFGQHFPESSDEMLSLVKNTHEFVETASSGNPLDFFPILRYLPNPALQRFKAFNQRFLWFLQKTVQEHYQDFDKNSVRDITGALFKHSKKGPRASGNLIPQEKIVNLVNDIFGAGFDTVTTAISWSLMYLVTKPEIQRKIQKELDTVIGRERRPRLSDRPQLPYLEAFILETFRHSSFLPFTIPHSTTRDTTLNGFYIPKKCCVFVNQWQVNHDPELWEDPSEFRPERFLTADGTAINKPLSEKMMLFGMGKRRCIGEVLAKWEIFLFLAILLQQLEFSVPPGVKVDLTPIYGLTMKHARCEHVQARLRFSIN
# [8] = biological target: Cytochrome P450 2D6 (Homo sapiens, UniProt P10635); assay: Inhibition of CYP2D6 in human liver microsomes using tolbutamide as substrate preincubated for 5 mins followed by NADPH-generating system addition and measured after 20 mins by LC-MS/MS analysis
# Sequence of Cytochrome P450 2D6 (P10635 whole entry): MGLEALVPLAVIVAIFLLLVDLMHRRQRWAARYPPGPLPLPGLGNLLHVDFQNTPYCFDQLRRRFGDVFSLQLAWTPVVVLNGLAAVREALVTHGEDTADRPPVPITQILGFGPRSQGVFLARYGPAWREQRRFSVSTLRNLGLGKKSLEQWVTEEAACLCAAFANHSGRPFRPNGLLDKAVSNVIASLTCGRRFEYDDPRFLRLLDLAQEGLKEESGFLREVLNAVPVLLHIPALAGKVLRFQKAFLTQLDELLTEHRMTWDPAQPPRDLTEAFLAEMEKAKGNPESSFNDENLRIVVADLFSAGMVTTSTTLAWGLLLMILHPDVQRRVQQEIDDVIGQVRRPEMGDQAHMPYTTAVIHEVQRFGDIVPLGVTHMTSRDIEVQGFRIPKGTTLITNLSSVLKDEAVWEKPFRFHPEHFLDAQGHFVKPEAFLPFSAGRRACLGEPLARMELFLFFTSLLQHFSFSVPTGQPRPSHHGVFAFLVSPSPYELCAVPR
# [9] = test system: PANC-1; assay: (§1) Antimetastatic activity against human PANC1 cells harboring luciferase reporter gene xenografted in Balb/c nude mouse assessed as reduction in lung metastasis burden by measuring reduction in luminescence at 25 mg/kg/day, ip measured every 10 days by bioluminescence imaging analysis relative to control; format: functional
# [10] = biological target: Epidermal growth factor receptor (Homo sapiens) (UniProt P00533); assay: Effect on EGF-stimulated EGFR phosphorylation in MYOF-knockout human PANC1 cells at 400 nM by Western blot analysis
# [11] = test system: PANC-1; assay: as §1, with “50” for “25”; format: functional
# [12] = Toxicity in Balb/c nude mouse xenografted with PANC1 cells assessed as pathological changes in lung at 25 to 50 mg/kg/day, ip by H and E staining-based microscopic analysis; format: organism-based; conditions: in vivo
# [13] = test system: MIA PaCa-2; assay: Antimigratory activity against human MIAPaCa2 cells measured after 24 hrs in presence of mitomycin C using crystal violet staining by inverted microscopy-based transwell assay; format: functional, cell-based
# [14] = biological target: Cytochrome P450 2C9 (Homo sapiens, UniProt P11712); assay: Inhibition of CYP2C9 in human liver microsomes using tolbutamide as substrate preincubated for 5 mins followed by NADPH-generating system addition and measured after 20 mins by LC-MS/MS analysis
# Sequence of Cytochrome P450 2C9 (P11712 whole entry): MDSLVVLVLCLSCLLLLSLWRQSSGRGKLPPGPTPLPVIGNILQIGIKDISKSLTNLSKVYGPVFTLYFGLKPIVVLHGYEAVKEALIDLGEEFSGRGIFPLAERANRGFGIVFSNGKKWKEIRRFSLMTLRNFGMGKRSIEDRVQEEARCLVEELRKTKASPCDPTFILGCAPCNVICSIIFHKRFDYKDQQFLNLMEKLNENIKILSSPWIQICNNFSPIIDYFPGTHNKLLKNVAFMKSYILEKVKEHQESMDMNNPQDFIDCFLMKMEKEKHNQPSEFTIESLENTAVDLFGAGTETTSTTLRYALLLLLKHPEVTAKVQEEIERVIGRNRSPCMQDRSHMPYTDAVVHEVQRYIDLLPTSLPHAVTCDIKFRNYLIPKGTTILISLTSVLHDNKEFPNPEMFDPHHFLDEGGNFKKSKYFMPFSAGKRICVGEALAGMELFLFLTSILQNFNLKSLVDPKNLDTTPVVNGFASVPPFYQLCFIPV
# [15] = test system: PANC-1; assay: Effect on MMP2 secretion in MYOF-knockout human PANC1 cells up to 400 nM by Western blot analysis; format: functional, cell-based
# [16] = test system: PANC-1; assay: Antiinvasive activity against human PANC1 cells measured after 18 hrs in presence of mitomycin C using crystal violet staining by inverted microscopy-based matrigel coated transwell assay; format: functional, cell-based; conditions: PANC-1, 18 h
# [17] = test system: MCF-10A; assay: Cytotoxicity against human MCF10A cells assessed as reduction in cell viability measured after 48 hrs by MTS assay; format: cell-based
# [18] = Toxicity in Balb/c nude mouse xenografted with PANC1 cells assessed as body weight loss at 25 to 50 mg/kg/day, ip; format: organism-based; conditions: in vivo
# [19] = test system: PANC-1; assay: Antimigratory activity against MYOF-knockout human PANC1 cells transfected with pcDNA3.1-MYOF measured after 18 hrs in presence of mitomycin C using crystal violet staining by inverted microscopy-based transwell assay; format: functional, cell-based
# [20] = biological target: T2, Myoferlin (Homo sapiens, UniProt Q9NZM1); assay: Inhibition of MYOF in human PANC1 cells assessed as reduction in MMP2 secretion measured after 24 hrs by SDS-PAGE analysis; format: cell-based
# T2 sequence (Q9NZM1 whole entry): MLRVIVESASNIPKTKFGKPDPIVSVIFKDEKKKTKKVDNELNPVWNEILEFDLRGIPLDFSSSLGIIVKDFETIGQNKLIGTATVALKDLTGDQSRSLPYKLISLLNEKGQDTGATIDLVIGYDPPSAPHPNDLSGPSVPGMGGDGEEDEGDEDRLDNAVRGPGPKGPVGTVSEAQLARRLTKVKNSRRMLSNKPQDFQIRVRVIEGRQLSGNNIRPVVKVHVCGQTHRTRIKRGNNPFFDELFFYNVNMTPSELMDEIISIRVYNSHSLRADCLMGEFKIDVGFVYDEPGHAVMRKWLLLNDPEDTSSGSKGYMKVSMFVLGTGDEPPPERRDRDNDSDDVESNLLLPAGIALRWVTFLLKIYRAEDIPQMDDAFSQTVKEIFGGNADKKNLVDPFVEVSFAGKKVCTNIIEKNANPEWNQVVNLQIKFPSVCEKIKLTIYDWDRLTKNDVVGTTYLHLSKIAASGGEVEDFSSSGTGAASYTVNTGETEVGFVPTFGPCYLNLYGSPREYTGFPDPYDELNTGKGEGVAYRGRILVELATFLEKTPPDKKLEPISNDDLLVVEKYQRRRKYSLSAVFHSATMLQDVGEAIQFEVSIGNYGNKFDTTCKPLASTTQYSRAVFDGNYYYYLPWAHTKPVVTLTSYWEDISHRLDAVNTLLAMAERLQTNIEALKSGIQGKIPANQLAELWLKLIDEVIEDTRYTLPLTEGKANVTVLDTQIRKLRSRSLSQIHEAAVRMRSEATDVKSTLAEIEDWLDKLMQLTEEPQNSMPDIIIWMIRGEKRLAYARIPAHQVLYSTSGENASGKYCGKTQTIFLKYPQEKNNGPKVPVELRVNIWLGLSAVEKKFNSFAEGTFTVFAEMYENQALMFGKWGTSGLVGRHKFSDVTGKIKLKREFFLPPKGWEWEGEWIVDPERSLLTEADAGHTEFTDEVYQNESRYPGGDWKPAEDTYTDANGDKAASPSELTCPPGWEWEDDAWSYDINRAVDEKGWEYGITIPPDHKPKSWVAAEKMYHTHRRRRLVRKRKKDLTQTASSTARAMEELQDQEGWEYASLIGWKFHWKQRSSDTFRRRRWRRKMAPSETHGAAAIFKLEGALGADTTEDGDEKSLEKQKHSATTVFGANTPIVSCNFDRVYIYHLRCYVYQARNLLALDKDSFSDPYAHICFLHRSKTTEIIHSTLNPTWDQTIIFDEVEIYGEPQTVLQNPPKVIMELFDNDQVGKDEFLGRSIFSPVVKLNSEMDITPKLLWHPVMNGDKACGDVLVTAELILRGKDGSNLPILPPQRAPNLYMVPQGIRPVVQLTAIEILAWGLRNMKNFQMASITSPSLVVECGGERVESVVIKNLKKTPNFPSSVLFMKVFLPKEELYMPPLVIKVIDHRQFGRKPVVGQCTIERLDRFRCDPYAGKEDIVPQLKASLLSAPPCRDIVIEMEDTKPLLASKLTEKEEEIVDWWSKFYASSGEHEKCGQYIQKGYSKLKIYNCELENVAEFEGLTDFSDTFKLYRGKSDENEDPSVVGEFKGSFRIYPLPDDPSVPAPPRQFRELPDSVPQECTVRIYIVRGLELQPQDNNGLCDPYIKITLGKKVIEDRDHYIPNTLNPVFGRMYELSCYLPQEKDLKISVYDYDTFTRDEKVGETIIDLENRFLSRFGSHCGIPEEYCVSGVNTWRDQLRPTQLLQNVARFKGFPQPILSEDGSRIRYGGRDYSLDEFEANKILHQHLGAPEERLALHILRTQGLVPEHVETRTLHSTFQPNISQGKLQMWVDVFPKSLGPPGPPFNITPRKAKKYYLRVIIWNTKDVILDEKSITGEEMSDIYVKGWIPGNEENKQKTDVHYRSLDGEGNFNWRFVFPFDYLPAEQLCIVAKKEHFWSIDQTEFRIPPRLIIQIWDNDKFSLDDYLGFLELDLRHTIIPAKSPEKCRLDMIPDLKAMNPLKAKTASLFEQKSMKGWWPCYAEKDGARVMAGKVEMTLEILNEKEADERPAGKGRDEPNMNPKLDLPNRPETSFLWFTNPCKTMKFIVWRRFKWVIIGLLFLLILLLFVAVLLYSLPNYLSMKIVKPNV
# [21] = test system: PANC-1; assay: Effect on myosin 2A expression in human PANC1 cells up to 400 nM by Western blot analysis; format: functional, cell-based
# [22] = test system: PANC-1; assay: Effect on E-cadherin expression in MYOF-knockout human PANC1 cells up to 400 nM by Western blot analysis; format: functional, cell-based
# [23] = biological target: Vascular endothelial growth factor receptor 2 (Homo sapiens) (UniProt P35968); assay: Effect on VEGFR2 phosphorylation in MYOF-knockout human PANC1 cells up to 400 nM by Western blot analysis
# Sequence of Vascular endothelial growth factor receptor 2 (Homo sapiens) (P35968 whole entry): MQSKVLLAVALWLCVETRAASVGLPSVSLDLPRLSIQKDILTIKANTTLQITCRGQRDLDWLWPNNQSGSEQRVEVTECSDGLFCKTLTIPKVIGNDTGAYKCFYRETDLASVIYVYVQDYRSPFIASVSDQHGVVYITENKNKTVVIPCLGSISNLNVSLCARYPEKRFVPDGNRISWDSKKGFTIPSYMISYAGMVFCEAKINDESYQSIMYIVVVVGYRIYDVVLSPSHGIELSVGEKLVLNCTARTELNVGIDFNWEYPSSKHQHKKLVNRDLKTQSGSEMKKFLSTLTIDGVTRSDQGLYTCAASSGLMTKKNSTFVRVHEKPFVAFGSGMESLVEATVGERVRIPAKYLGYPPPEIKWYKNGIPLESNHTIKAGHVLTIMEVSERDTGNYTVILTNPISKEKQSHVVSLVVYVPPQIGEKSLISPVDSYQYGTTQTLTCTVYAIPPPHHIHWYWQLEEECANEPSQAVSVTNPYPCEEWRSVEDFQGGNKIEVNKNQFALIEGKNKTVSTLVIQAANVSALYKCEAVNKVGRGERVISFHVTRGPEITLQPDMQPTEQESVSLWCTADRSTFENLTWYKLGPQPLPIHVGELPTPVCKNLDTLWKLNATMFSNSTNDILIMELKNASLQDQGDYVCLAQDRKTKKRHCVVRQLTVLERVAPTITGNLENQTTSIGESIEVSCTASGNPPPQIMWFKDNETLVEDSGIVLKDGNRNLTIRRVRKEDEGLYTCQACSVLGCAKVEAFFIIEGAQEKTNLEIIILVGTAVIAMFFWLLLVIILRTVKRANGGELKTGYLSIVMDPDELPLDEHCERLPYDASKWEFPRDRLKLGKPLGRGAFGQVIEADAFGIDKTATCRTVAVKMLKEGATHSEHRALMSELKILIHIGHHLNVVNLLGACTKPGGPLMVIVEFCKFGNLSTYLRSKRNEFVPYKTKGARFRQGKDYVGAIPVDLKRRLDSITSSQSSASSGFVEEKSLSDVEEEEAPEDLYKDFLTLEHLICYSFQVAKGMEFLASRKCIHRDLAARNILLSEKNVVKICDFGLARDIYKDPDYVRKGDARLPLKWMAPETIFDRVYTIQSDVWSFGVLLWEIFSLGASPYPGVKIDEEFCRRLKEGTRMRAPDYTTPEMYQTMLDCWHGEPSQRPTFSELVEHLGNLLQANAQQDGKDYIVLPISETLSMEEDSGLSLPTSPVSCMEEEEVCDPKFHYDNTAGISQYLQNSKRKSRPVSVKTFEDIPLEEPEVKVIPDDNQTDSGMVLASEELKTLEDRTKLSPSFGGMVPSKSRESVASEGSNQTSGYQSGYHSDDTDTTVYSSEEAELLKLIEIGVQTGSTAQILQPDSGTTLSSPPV
# [24] = biological target: T2, Myoferlin; assay: Inhibition of MYOF in human PANC1 cells assessed as reduction in VEGFR2 level by Western blot analysis; format: cell-based
# [25] = test system: PANC-1; assay: Antimetastatic activity against human PANC1 cells harboring luciferase reporter gene xenografted in Balb/c nude mouse administered intraperitoneally once daily measured every 10 days by bioluminescence imaging analysis; format: functional, cell-based
# [26] = test system: PANC-1; assay: Effect on Twist1 expression in human PANC1 cells up to 400 nM by Western blot analysis; format: functional, cell-based
# [27] = biological target: T2, Myoferlin; assay: Inhibition of MYOF in human PANC1 cells assessed as reduction in MMP1 secretion measured after 24 hrs by SDS-PAGE analysis; format: cell-based
# [28] = biological target: T2, Myoferlin; assay: Inhibition of MYOF in human PANC1 cells assessed as reversal of epithelial-mesenchymal transition by measuring down regulation of fibronectin expression up to 400 nM by Western blot analysis; format: cell-based
# [29] = biological target: T2, Myoferlin; assay: Inhibition of MYOF in human PANC1 cells assessed as reversal of epithelial-mesenchymal transition by measuring up regulation of E-cadherin expression up to 400 nM by Western blot analysis; format: cell-based
# [30] = test system: PANC-1; assay: Effect on dynein expression in human PANC1 cells up to 400 nM by Western blot analysis; format: functional, cell-based
# [31] = test system: PANC-1; assay: Antimetastatic activity against human PANC1 cells harboring luciferase reporter gene xenografted in Balb/c nude mouse assessed as mouse survival at 25 mg/kg/day, ip (reference value: 25%); format: functional; conditions: PANC-1, ip
# [32] = test system: PANC-1; assay: Effect on fibronectin expression in MYOF-knockout human PANC1 cells up to 400 nM by Western blot analysis; format: functional, cell-based
smiles,measurement,setting,value
CCc1nc(-c2ncc(OC)cn2)n(-c2cccc(C(=O)NCCCCc3ccccc3)c2)n1,Activity,[1],Non-Toxic
same,Activity,[2],Non-Toxic
same,IC50,[3],0.84 µM
same,Activity,[4],Dose-dependent effect
same,IC50,"[4]; PANC-1, 18 h",0.11 µM
same,Activity,[5],inactive
same,Activity,[6],Dose-dependent effect
same,IC50,[7],> 50 µM
same,IC50,[8],49.6 µM
same,fold change (FC),[9],3
same,Activity,[10],inactive
same,fold change (FC),[11],5
same,Activity,[12],Non-Toxic
same,Activity,[13],Dose-dependent effect
same,IC50,[14],20.5 µM
same,Activity,[15],inactive
same,IC50,[16],0.12 µM
same,IC50,[17],27.6 µM
same,Activity,[18],Non-Toxic
same,Activity,[19],Active
same,inhibition,[20],Dose-dependent effect
same,Activity,[21],inactive
same,Activity,[22],inactive
same,Activity,[23],inactive
same,inhibition,[24],Dose-dependent effect
same,Activity,[25],Dose-dependent effect
same,Activity,[26],inactive
same,inhibition,[27],Dose-dependent effect
same,inhibition,[28],Dose-dependent effect
same,inhibition,[29],Active
same,Activity,[30],inactive
same,survival at 25 mg/kg/day,[31],75%
same,Activity,[32],inactive
